Measured values reported in US20070073056A1, “4-Substituted Pyrazoline Compounds, their Preparation and Use as Medicaments” (LABORATORIOS DEL DR. ESTEVE, S.A., priority 2005, published 2007).

Biological target: CB1-receptor (UniProt P20272)
Assay: binding of the pyrazoline compounds to CB1-receptors (Pharmacological Methods, Part I)
Design: other: 10^−7 M; other: 10^−8 M; species or system human or rat
Procedure: I. In-vitro Determination of Affinity to CB1/CB2-Receptors
The in-vitro determination of the affinity of the inventive 4-substituted pyrazoline compounds to CB1/CB2-Rezeptors is carried out as described in the publication of Ruth A. Ross, Heather C. Brockie et al., “Agonist-inverse agonist characterisation at CB1 and CB2 cannabinoid receptors of L-759633, L759656 and AM630”, British Journal of Pharmacology, 126, 665-672, (1999), whereby the transfected human CB1 and CB2 receptors of Receptor Biology, Inc. are used. The radioligand used for both receptors is [^3H]-CP55940. The respective parts of the description is hereby incorporated by reference and forms part of the present disclosure.
Rat Cerebellum CB1 Binding
Binding affinity to CB1 receptor was evaluated according to a modification of the method described by Govaerts et al., Eur J Pharmac Sci 23, 233-243 (2004). The respective parts of the description is hereby incorporated by reference and forms part of the present disclosure.
Briefly, cerebellum from male wistar rats (250-300 g) were carefully dissected on ice and homogenates were prepared with Potter-Helveheim in a cold 50 mM Tris-HCl solution containing 5 mM MgCl2, 1 mM EDTA and 0.25 M sucrose, pH 7.4. The suspension was centrifuged at […] for 5 minutes. The supernatants were collected and centrifuged 50,000×g for 15 minutes. The resulting pellets were then resuspended in Tris-HCl buffer without sucrose, homogenized and incubated for 15 min at 37° C. in an orbital shaker bath and centrifuged again at 50,000×g for 15 min. Pellets were weighted, resuspended in Tris-HCl buffer without sucrose, homogenized with Ultraturrax at 13,500 rpm for 3×5 seconds and alicuoted in 0.9 ml volumes in Eppendorf tubes. Alicuotes were centrifuged at 20,800×g for 5 minutes, supernatants discarded and pellets were frozen at −80° C. until use. Total protein concentration was determined using the Bio-Rad Lowry method based kit. Competitive binding experiments were performed in presence of 1 nM [^3H]-CP 55,940 in siliconized glass tubes containing 100 μg protein/tube resuspended in 1 ml final volume of 50 mM Tris-HCl, 5 mM MgCl2, 1 mM EDTA, 0.5% (w/v) bovine serum albumin, pH 7.4. Compounds were present at various concentrations and the non specific binding was determined in the presence of 10 μM HU-210. After 1 hour incubation at 30° C., the suspension was rapidly filtered through 0.5% PEI pre-treated GF/B fiber filters on a 96-well harvester and washed 3 times with 3 ml ice-cold binding buffer without bovine serum albumin. Radioactivity on filters was measured with Wallac Winspectral 1414 counter by liquid scintillation in 6 ml Ecoscint H (National Diagnostics, U.K.). Assays were made in triplicates.
Binding data were analyzed by non-linear regression with the software GraphPad Prism Version 3.03.
The binding of the pyrazoline compounds of general formula I to CB1-receptors was determined according to the method described in the section Pharmacological Methods, Part I.

Row | Inhibition (10^−7 M) | Inhibition (10^−8 M, in %) | Compound
1 | 11% | 7.2 | C[C@H]1C(C(=O)O)=NN(c2ccc(Cl)cc2Cl)[C@H]1c1cccs1 (racemic) [Example 367, cis-1-(2,4-dichlorophenyl)-4-methyl-5-(thiophen-2-yl)-4,5-dihydro-1H-pyrazole-3-carboxylic acid]
2 | −6.3% | −2.2 | C[C@H]1C(C(=O)O)=NN(c2ccc(Cl)cc2Cl)[C@H]1c1ccc(F)cc1 (racemic) [Example 221, cis-1-(2,4-dichlorophenyl)-5-(4-fluorophenyl)-4-methyl-4,5-dihydro-1H-pyrazole-3-carboxylic acid]
3 | 44.3% | 9.6 | COc1ccc([C@@H]2[C@H](C)C(C(=O)N[C@H]3CCCC[C@@H]3O)=NN2c2ccc(Cl)cc2Cl)cc1 (mixture of isomers) [Example 282, (−)-cis-1-(2,4-dichlorophenyl)-N-((1S,2S)-2-hydroxycyclohexyl)-5-(4-methoxyphenyl)-4-methyl-4,5-dihydro-1H-pyrazole-3-carboxamide]
4 | −15.4% | −11.1 | COc1ccc([C@@H]2[C@@H](C)C(C(=O)O)=NN2c2ccc(Cl)cc2Cl)cc1 [Example 412, (4R,5S)-1-(2,4-dichlorophenyl)-5-(4-methoxyphenyl)-4-methyl-4,5-dihydro-1H-pyrazole-3-carboxylic acid]
5 | 39.0% | 10.2 | COc1ccc([C@@H]2[C@H](C)C(C(=O)N[C@H]3CCCC[C@@H]3O)=NN2c2ccc(Cl)cc2Cl)cc1 (mixture of isomers) [Example 281, (+)-cis-1-(2,4-dichlorophenyl)-N-((1S,2S)-2-hydroxycyclohexyl)-5-(4-methoxyphenyl)-4-methyl-4,5-dihydro-1H-pyrazole-3-carboxamide]
6 | 31.2% | 38 | CCOC(=O)C1=NN(c2ccc(Cl)cc2Cl)[C@@H](c2ccccc2)[C@@H]1C (relative stereo) [Example 421, trans-ethyl 1-(2,4-dichlorophenyl)-4-methyl-5-phenyl-4,5-dihydro-1H-pyrazole-3-carboxylate]
7 | −5.8% | −37 | C[C@@H]1C(C(=O)N[C@H]2CCCC[C@@H]2OCc2ccccc2)=NN(c2ccc(Cl)cc2Cl)[C@@H]1c1ccc(Cl)cc1 (mixture of isomers) [Example 409, (+)-cis-N-((1S,2S)-2-(benzyloxy)cyclohexyl)-5-(4-chlorophenyl)-1-(2,4-dichlorophenyl)-4-methyl-4,5-dihydro-1H-pyrazole-3-carboxamide]
8 | 79.3% | 32.3 | C[C@@H]1C(C(=O)NN2CCc3ccccc32)=NN(c2ccc(Cl)cc2Cl)[C@@H]1c1ccc(Br)cc1 (relative stereo) [Example 415, cis-5-(4-bromophenyl)-1-(2,4-dichlorophenyl)-N-(indolin-1-yl)-4-methyl-4,5-dihydro-1H-pyrazole-3-carboxamide]
9 | −11% | −10.1 | CC1C(C(=O)O)=NN(c2ccc(Cl)cc2Cl)C1c1ccccc1 (stereo not drawn) [Example 429, 1-(2,4-dichlorophenyl)-4-methyl-5-phenyl-4,5-dihydro-1H-pyrazole-3-carboxylic acid]
10 | 40.9% | 14.7 | C[C@@H]1C(C(=O)N[C@@H]2CCCC[C@H]2OCc2ccccc2)=NN(c2ccc(Cl)cc2Cl)[C@@H]1c1ccc(Cl)cc1 (mixture of isomers) [Example 437, (−)-cis-N-((1R,2R)-2-(benzyloxy)cyclohexyl)-5-(4-chlorophenyl)-1-(2,4-dichlorophenyl)-4-methyl-4,5-dihydro-1H-pyrazole-3-carboxamide]
11 | 30.4% | 2.8 | C[C@@H]1C(C(=O)NN2CCCCC2)=NN(c2ccc(Cl)cc2Cl)[C@@H]1c1ccc(Cl)cc1 [Example 420, (+)-cis-5-(4-chlorophenyl)-1-(2,4-dichlorophenyl)-4-methyl-N-(piperidin-1-yl)-4,5-dihydro-1H-pyrazole-3-carboxamide]

Further lines, the compound ahead of its results:

Row | Compound | Inhibition (10^−7 M) | Inhibition (10^−8 M, in %)
12 | cis-1-(2,4-dichlorophenyl)-5-(4-hydroxyphenyl)-4-methyl-N-(piperidin-1-yl)-4,5-dihydro-1H-pyrazole-3-carboxamide [Example 343] | −10.1% | −15.8
13 | C[C@@H]1C(C(=O)NCC2CCCCC2)=NN(c2ccc(Cl)cc2Cl)[C@@H]1c1ccc(Cl)cc1 (relative stereo) [Example 114, cis-5-(4-chlorophenyl)-N-(cyclohexylmethyl)-1-(2,4-dichlorophenyl)-4-methyl-4,5-dihydro-1H-pyrazole-3-carboxamide] | 28.3% | −13
14 | COC[C@@H]1CCCN1NC(=O)C1=NN(c2ccc(Cl)cc2Cl)[C@H](c2ccc(Cl)cc2)[C@@H]1C.Cl (mixture of isomers) [Example 107, cis-5-(4-chlorophenyl)-1-(2,4-dichlorophenyl)-N-((S)-2-(methoxymethyl)pyrrolidin-1-yl)-4-methyl-4,5-dihydro-1H-pyrazole-3-carboxamide hydrochloride] | 43.9% | 2.7
15 | C[C@@H]1C(C(=O)O)=NN(c2ccc(Cl)cc2Cl)[C@H]1c1ccc(Br)cc1 (relative stereo) [Example 200, trans-5-(4-bromophenyl)-1-(2,4-dichlorophenyl)-4-methyl-4,5-dihydro-1H-pyrazole-3-carboxylic acid] | −11.2% | 3
16 | C[C@H]1C(C(=O)NN2CCCC2)=NN(c2ccc(Cl)cc2Cl)[C@H]1c1ccc(Cl)cc1 (relative stereo) [Example 7, cis-5-(4-Chloro-phenyl)-1-(2,4-dichloro-phenyl)-4-methyl-4,5-dihydro-1H-pyrazole-3-carboxylic acid pyrrolidin-1-ylamide] | 41% | 20.7
17 | C[C@@H]1C(C(=O)N[C@H]2CCCC[C@@H]2O)=NN(c2ccc(Cl)cc2Cl)[C@@H]1c1ccc(Cl)cc1 (mixture of isomers) [Example 128, (+)-cis-5-(4-chlorophenyl)-1-(2,4-dichlorophenyl)-N-((1S,2S)-2-hydroxycyclohexyl)-4-methyl-4,5-dihydro-1H-pyrazole-3-carboxamide] | 35.3% | 18.0
18 | C[C@@H]1C(C(=O)N[C@H]2C[C@H]3CC[C@]2(C)C3(C)C)=NN(c2ccc(Cl)cc2Cl)[C@@H]1c1ccc(Cl)cc1 (mixture of isomers) [Example 422, cis-5-(4-chlorophenyl)-1-(2,4-dichlorophenyl)-4-methyl-N-((1R,2S,4R)-1,7,7-trimethylbicyclo[2.2.1]heptan-2-yl)-4,5-dihydro-1H-pyrazole-3-carboxamide] | −2% | −8.4
19 | C[C@@H]1C(C(=O)NN2CCN(C3CCCC3)CC2)=NN(c2ccc(Cl)cc2Cl)[C@@H]1c1ccc(Cl)cc1.Cl (relative stereo) [Example 100, cis-5-(4-chlorophenyl)-N-(4-cyclopentylpiperazin-1-yl)-1-(2,4-dichlorophenyl)-4-methyl-4,5-dihydro-1H-pyrazole-3-carboxamide hydrochloride] | 32.6% | 5.4
20 | CC[C@H]1C(C(=O)O)=NN(c2ccc(Cl)cc2Cl)[C@H]1c1ccc(Cl)cc1 (racemic) [Example 21, cis-5-(4-Chloro-phenyl)-1-(2,4-dichloro-phenyl)-4-ethyl-4,5-dihydro-1H-pyrazole-3-carboxylic acid] | 23% | 11
21 | C[C@@H]1C(C(=O)NN2CCOCC2)=NN(c2ccc(Cl)cc2Cl)[C@@H]1c1ccc(Cl)cc1 (relative stereo) [Example 101, cis-5-(4-chlorophenyl)-1-(2,4-dichlorophenyl)-4-methyl-N-morpholino-4,5-dihydro-1H-pyrazole-3-carboxamide] | 34.9% | 27.7
